Data: patent US8735406B2, “8-oxodihydropurine derivative” (Dainippon Sumitomo Pharma Co., Ltd., priority 2009, dated 2014)

Target: T1, FAAH (Rattus norvegicus, UniProt P97612)
T1 construct: Preparation of Rat Brain Membranes Preparations (FAAH Enzyme Solution); from tissue; host or cells: rat cerebrum (brain membrane preparation)
T1 sequence (P97612 1-579): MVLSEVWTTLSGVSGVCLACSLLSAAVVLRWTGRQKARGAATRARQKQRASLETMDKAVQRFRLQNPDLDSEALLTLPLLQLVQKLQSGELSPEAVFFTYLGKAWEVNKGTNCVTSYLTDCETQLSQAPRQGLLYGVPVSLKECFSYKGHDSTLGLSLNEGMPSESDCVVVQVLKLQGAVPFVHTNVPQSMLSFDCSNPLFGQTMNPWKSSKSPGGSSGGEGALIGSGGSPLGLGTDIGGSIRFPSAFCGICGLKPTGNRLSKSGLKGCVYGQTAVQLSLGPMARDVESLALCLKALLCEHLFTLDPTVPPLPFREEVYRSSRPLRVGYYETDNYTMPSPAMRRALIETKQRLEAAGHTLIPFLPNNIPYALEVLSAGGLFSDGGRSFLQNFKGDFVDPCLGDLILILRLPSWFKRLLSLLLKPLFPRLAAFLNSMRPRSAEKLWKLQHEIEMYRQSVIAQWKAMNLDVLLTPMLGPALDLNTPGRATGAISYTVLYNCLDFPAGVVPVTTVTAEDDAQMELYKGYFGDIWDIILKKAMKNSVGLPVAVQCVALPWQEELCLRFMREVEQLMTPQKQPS
Assay: Determination of FAAH inhibitory activity in rat (rat brain membrane preparations, [3H]-anandamide hydrolysis)
Assay type: biochemical
Conditions: rat brain membrane preparations; for inhibition at 0.1 µM: 100 nM test substance, read-out: FAAH Inhibition, Inhibition Rate at 100 nM; for IC50: test substance 0.1 nM to 1 μM, read-out: FAAH Inhibition IC50
Outline: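 Rat cerebrum membranes (100 μg/mL protein) preincubated 10 min at 37 °C with compound (1% DMSO) in pH 7.6 Tris buffer with 1.5% BSA. Substrate 2 nM [3H]-anandamide plus 2 μM anandamide added for 10 min at 37 °C. [3H]-ethanolamine in the aqueous phase after chloroform/methanol extraction was scintillation counted; IC50 over 0.1 nM–1 μM.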

Row | SMILES | inhibition at 0.1 µM [%] | IC50 [nM]
1 | Cn1c(=O)n(C(=O)N2CCCC2)c2nc(Cc3ccc(F)cc3)ncc21 [Example 295, 2-(4-Fluorobenzyl)-7-methyl-9-(pyrrolidin-1-ylcarbonyl)-7,9-dihydro-8H-purine-8-one] | 91 | 43
2 | Cn1c(=O)n(C(=O)N2CCCC2)c2nc(Cc3ccc(F)cc3F)ncc21 [Example 296, 2-(2,4-Difluorobenzyl)-7-methyl-9-(pyrrolidin-1-ylcarbonyl)-7,9-dihydro-8H-purine-8-one] | 92 | 45
3 | Cn1c(=O)n(C(=O)N2CCCC2)c2nc(Cc3cc(F)ccc3F)ncc21 [Example 297, 2-(2,5-Difluorobenzyl)-7-methyl-9-(pyrrolidin-1-ylcarbonyl)-7,9-dihydro-8H-purine-8-one] | 89 | 47
4 | Cn1c(=O)n(C(=O)N2CCCC2)c2nc(Cc3c(F)cccc3F)ncc21 [Example 298, 2-(2,6-Difluorobenzyl)-7-methyl-9-(pyrrolidin-1-ylcarbonyl)-7,9-dihydro-8H-purine-8-one] | 98 | 48
5 | Cn1c(=O)n(C(=O)N2CCCC2)c2nc(Cc3cc(F)cc(F)c3)ncc21 [Example 299, 2-(3,5-Difluorobenzyl)-7-methyl-9-(pyrrolidin-1-ylcarbonyl)-7,9-dihydro-8H-purine-8-one] | 100 | 37
6 | Cn1c(=O)n(C(=O)N2CCCC2)c2nc(Cc3ccccc3F)ncc21 [Example 300, 2-(2-Fluorobenzyl)-7-methyl-9-(pyrrolidin-1-ylcarbonyl)-7,9-dihydro-8H-purine-8-one] | 88 | 40
7 | O=C(N1CCCC1)n1c(=O)[nH]c2nc(-c3ccccc3)ncc21 [Example 301, 2-phenyl-7-(pyrrolidin-1-ylcarbonyl)-7,9-dihydro-8H-purine-8-one] | 90 | 23
8 | O=C(N1CCCC1)n1c(=O)n(CCO)c2nc(-c3ccccc3)ncc21 [Example 302, 9-(2-hydroxyethyl)-2-phenyl-7-(pyrrolidin-1-ylcarbonyl)-7,9-dihydro-8H-purine-8-one] | 94 | 46
9 | CCn1c(=O)n(C(=O)N2CCCC2)c2cnc(-c3ccccc3)nc21 [Example 303] | 101 | 7
10 | CCCn1c(=O)n(C(=O)N2CCCC2)c2cnc(-c3ccccc3)nc21 [Example 304, 2-Phenyl-9-propyl-7-(pyrrolidin-1-ylcarbonyl)-7,9-dihydro-8H-purine-8-one] | 100 | 9
11 | CC(C)n1c(=O)n(C(=O)N2CCCC2)c2cnc(-c3ccccc3)nc21 [Example 305] | 99 | 12
12 | CCCCn1c(=O)n(C(=O)N2CCCC2)c2cnc(-c3ccccc3)nc21 [Example 306, 9-Butyl-2-phenyl-7-(pyrrolidin-1-ylcarbonyl)-7,9-dihydro-8H-purine-8-one] | 99 | 15
13 | CC(C)Cn1c(=O)n(C(=O)N2CCCC2)c2cnc(-c3ccccc3)nc21 [Example 307] | 96 | 41
14 | O=C(N1CCCC1)n1c(=O)n(Cc2ccccc2)c2nc(-c3ccccc3)ncc21 [Example 308] | 66 | 74
15 | O=C(N1CCCC1)n1c(=O)n(CCN2CCCC2)c2nc(-c3ccccc3)ncc21 [Example 310] | 5 | > 100
16 | Cn1c(=O)n(C(=O)N2CCCC2)c2cnc(-c3cccc(O)c3)nc21 [Example 311, 2-(3-hydroxyphenyl)-9-methyl-7-(pyrrolidin-1-ylcarbonyl)-7,9-dihydro-8H-purine-8-one] | 88 | 53
17 | Cn1c(=O)n(C(=O)N2CCCC2)c2nc(CCc3ccc(C(F)(F)F)cc3)ncc21 [Example 312, 7-methyl-9-(pyrrolidin-1-ylcarbonyl)-2-{2-[4-(trifluoromethyl)phenyl]ethyl}-7,9-dihydro-8H-purine-8-one] | 99 | 8
18 | Cn1c(=O)n(C(=O)N2CCCC2)c2nc(CCc3cccc(C(F)(F)F)c3)ncc21 [Example 313, 7-Methyl-9-(pyrrolidin-1-ylcarbonyl)-2-{2-[3-(trifluoromethyl)phenyl]ethyl}-7,9-dihydro-8H-purine-8-one] | 103 | 11
19 | Cn1c(=O)n(C(=O)N2CCCC2)c2nc(CCc3ccc(F)cc3)ncc21 [Example 314, 2-[2-(4-Fluorophenyl)ethyl]-7-methyl-9-(pyrrolidin-1-ylcarbonyl)-7,9-dihydro-8H-purine-8-one] | 100 | 37

Further lines, results first:

Row | inhibition at 0.1 µM [%] | IC50 [nM] | SMILES
20 | 95 | 19 | Cn1c(=O)n(C(=O)N2CCCC2)c2nc(CCc3cccc(F)c3)ncc21 [Example 315, 2-[2-(3-Fluorophenyl)ethyl]-7-methyl-9-(pyrrolidin-1-ylcarbonyl)-7,9-dihydro-8H-purine-8-one]
21 | 80 | 55 | Cn1c(=O)n(C(=O)N2CCCC2)c2cnc(C3CCCCC3)nc21 [Example 316, 2-cyclohexy-9-methyl-7-(pyrrolidin-1-ylcarbonyl)-7,9-dihydro-8H-purine-8-one]
22 | 103 | < 10 | Cn1c(=O)n(C(=O)N2CCCC2)c2cnc(-c3cccc(N)c3)nc21 [Example 317, 2-(3-aminophenyl)-9-methyl-7-(pyrrolidin-1-ylcarbonyl)-7,9-dihydro-8H-purine-8-one]
23 | 45 | – | COc1cccc(-c2ncc3c(n2)n(C(=O)N(C)C)c(=O)n3C)c1 [Example 322, 2-(3-Methoxyphenyl)-N,N,7-trimethyl-8-oxo-7,8-dihydro-9H-purine-9-carboxamide]
24 | 83 | 52 | CN(C)C(=O)n1c(=O)n(C)c2cnc(-c3ccc(C(F)(F)F)cc3)nc21 [Example 326, N,N,7-Trimethyl-8-oxo-2-[4-(trifluoromethyl)phenyl]-7,8-dihydro-9H-purine-9-carboxamide]
25 | 62 | 95 | CN(C)C(=O)n1c(=O)n(C)c2cnc(-c3ccc(C(F)F)cc3)nc21 [Example 330, 2-[4-(Difluoromethyl)phenyl]-N,N,7-trimethyl-8-oxo-7,8-dihydro-9H-purine-9-carboxamide]
26 | 77 | 33 | CN(C)C(=O)n1c(=O)n(C)c2cnc(-c3cccc(OC(F)F)c3)nc21 [Example 331, 2-[3-(Difluoromethoxy)phenyl]-N,N,7-trimethyl-8-oxo-7,8-dihydro-9H-purine-9-carboxamide]
27 | 78 | 38 | CN(C)C(=O)n1c(=O)n(C)c2cnc(-c3cccc(C(F)F)c3)nc21 [Example 332, 2-[3-(Difluoromethyl)phenyl]-N,N,7-trimethyl-8-oxo-7,8-dihydro-9H-purine-9-carboxamide]
28 | 88 | 25 | CN(C)C(=O)n1c(=O)n(C)c2cnc(-c3ccc(OCC(F)(F)F)cc3)nc21 [Example 334, N,N,7-Trimethyl-8-oxo-2-[4-(2,2,2-trifluoroethoxy)phenyl]-7,8-dihydro-9H-purine-9-carboxamide]
29 | 74 | 33 | CN(C)C(=O)n1c(=O)n(C)c2cnc(-c3cccc(OCC(F)F)c3)nc21 [Example 335, 2-[3-(2,2-Difluoroethoxy)phenyl]-N,N,7-trimethyl-8-oxo-7,8-dihydro-9H-purine-9-carboxamide]
30 | 85 | 20 | CN(C)C(=O)n1c(=O)n(C)c2cnc(-c3cccc(OCC(F)(F)F)c3)nc21 [Example 336]
31 | 82 | 46 | CN(C)C(=O)n1c(=O)n(C)c2cnc(-c3ccc(OC(F)F)cc3)nc21 [Example 337, 2-[4-(Difluoromethoxy)phenyl]-N,N,7-trimethyl-8-oxo-7,8-dihydro-9H-purine-9-carboxamide]
32 | 83 | 21 | CN(C)C(=O)n1c(=O)n(C)c2cnc(-c3ccc(C(F)(F)F)cc3F)nc21 [Example 338, 2-[2-Fluoro-4-(trifluoromethyl)phenyl]-N,N,7-trimethyl-8-oxo-7,8-dihydro-9H-purine-9-carboxamide]
33 | 80 | 7 | CN(C)C(=O)n1c(=O)n(C)c2cnc(-c3ccc(C(F)(F)F)cc3Cl)nc21 [Example 339, 2-[2-Chloro-4-(trifluoromethyl)phenyl]-N,N,7-trimethyl-8-oxo-7,8-dihydro-9H-purine-9-carboxamide]
34 | 72 | 95 | COc1ccc(-c2ncc3c(n2)n(C(=O)N2CCC2)c(=O)n3C)cc1 [Example 356, 9-(Azetidin-1-ylcarbonyl)-2-(4-methoxyphenyl)-7-methyl-7,9-dihydro-8H-purine-8-one]
